Assay results reported in ChEMBL document CHEMBL1201862, “PubChem BioAssay data set” (2004).
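In this assay, cells in 96-well plates receive the compound at five concentrations for 48 hours. Endpoints are linearly interpolated between the surrounding concentrations. Abbreviation: GI50, concentration required for 50% inhibition of growth.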 The source made the active and inactive calls. Rule as the data show it: active = GI50 up to about 1.1 µM and inactive = higher.

Columns and labels:
Assay in all cases: NCI tumour cell line growth inhibition, 48 h
SK-OV-3 = tested on: SK-OV-3
NCI/ADR-RES = tested on: NCI/ADR-RES
786-0 = tested on: 786-0
UACC-257 = tested on: UACC-257
MOLT-4 = tested on: MOLT-4
EKVX = tested on: EKVX
HOP-62 = tested on: HOP-62
SK-MEL-5 = tested on: SK-MEL-5
NCI-H522 = tested on: NCI-H522
HL-60 = tested on: HL-60
SR = tested on: SR
Hs-578T = tested on: Hs-578T
SK-MEL-2 = tested on: SK-MEL-2
MDA-MB-435 = tested on: MDA-MB-435
MDA-MB-231 = tested on: MDA-MB-231
OVCAR-5 = tested on: OVCAR-5
KM12 = tested on: KM12
HCC 2998 = tested on: HCC 2998
RPMI-8226 = tested on: RPMI-8226
CCRF-CEM = tested on: CCRF-CEM
IGROV-1 = tested on: IGROV-1
BT-549 = tested on: BT-549
TK-10 = tested on: TK-10
A549 = tested on: A549
NCI-H460 = tested on: NCI-H460
U-251 = tested on: U-251
K562 = tested on: K562
SF-268 = tested on: SF-268
MCF7 = tested on: MCF7
SK-MEL-28 = tested on: SK-MEL-28
HCT-15 = tested on: HCT-15
UACC-62 = tested on: UACC-62
LOX IMVI = tested on: LOX IMVI
ACHN = tested on: ACHN
NCI-H23 = tested on: NCI-H23
DU-145 = tested on: DU-145
SF-295 = tested on: SF-295
OVCAR-8 = tested on: OVCAR-8
SF-539 = tested on: SF-539
SW-620 = tested on: SW-620
HCT-116 = tested on: HCT-116
NCI-H226 = tested on: NCI-H226
COLO 205 = tested on: COLO 205
OVCAR-3 = tested on: OVCAR-3
UO-31 = tested on: UO-31
HOP-92 = tested on: HOP-92
HT-29 = tested on: HT-29
T47D = tested on: T47D
SNB-75 = tested on: SNB-75
OVCAR-4 = tested on: OVCAR-4
RXF 393 = tested on: RXF 393
Malme-3M = tested on: Malme-3M
CAKI-1 = tested on: CAKI-1
A498 = tested on: A498
M14 = tested on: M14
SNB-19 = tested on: SNB-19
MDA-N = tested on: MDA-N
PC-3 = tested on: PC-3
SN12C = tested on: SN12C

CN(/N=C\c1ccc2ccccc2c1)C1=NCCCN1
GI50 (SK-OV-3): 19.1 µM (inactive)
GI50 (NCI/ADR-RES): 19.5 µM (inactive)
GI50 (786-0): 12.7 µM (inactive)
GI50 (UACC-257): 10.4 µM (inactive)
GI50 (MOLT-4): 2.39 µM (inactive)
GI50 (EKVX): 17.3 µM (inactive)
GI50 (HOP-62): 12.1 µM (inactive)
GI50 (SK-MEL-5): 11.9 µM (inactive)
GI50 (NCI-H522): 13.8 µM (inactive)
GI50 (HL-60): 8.71 µM (inactive)
GI50 (SR): 13.1 µM (inactive)
GI50 (Hs-578T): 10.7 µM (inactive)
GI50 (SK-MEL-2): 15.2 µM (inactive)
GI50 (MDA-MB-435): 15.2 µM (inactive)
GI50 (MDA-MB-231): 15.6 µM (inactive)
GI50 (OVCAR-5): 28.1 µM (inactive)
GI50 (KM12): 15 µM (inactive)
GI50 (HCC 2998): 11.7 µM (inactive)
GI50 (RPMI-8226): 14.9 µM (inactive)
GI50 (CCRF-CEM): 12.7 µM (inactive)
GI50 (IGROV-1): 4.56 µM (inactive)
GI50 (BT-549): 1.87 µM (inactive)
GI50 (TK-10): 14 µM (inactive)
GI50 (A549): 8.18 µM (inactive)
GI50 (NCI-H460): 4.7 µM (inactive)
GI50 (U-251): 20 µM (inactive)
GI50 (K562): 11.7 µM (inactive)
GI50 (SF-268): 13.8 µM (inactive)
GI50 (MCF7): 3.56 µM (inactive)
GI50 (SK-MEL-28): 14.6 µM (inactive)
GI50 (HCT-15): 17.7 µM
GI50 (UACC-62): 14.2 µM (inactive)
GI50 (LOX IMVI): 7.41 µM (inactive)
GI50 (ACHN): 13.3 µM (inactive)
GI50 (NCI-H23): 25.9 µM (inactive)
GI50 (DU-145): 27.4 µM (inactive)
GI50 (SF-295): 11.9 µM (inactive)
GI50 (OVCAR-8): 15.4 µM (inactive)
GI50 (SF-539): 19.8 µM (inactive)
GI50 (SW-620): 12.1 µM (inactive)
GI50 (HCT-116): 13.8 µM (inactive)
GI50 (NCI-H226): 17 µM (inactive)
GI50 (COLO 205): 12.7 µM (inactive)
GI50 (OVCAR-3): 18.9 µM (inactive)
GI50 (UO-31): 9.93 µM (inactive)
GI50 (HOP-92): 2.11 µM (inactive)
GI50 (HT-29): 12 µM (inactive)
GI50 (T47D): 22.6 µM (inactive)
GI50 (SNB-75): 13.3 µM (inactive)
GI50 (OVCAR-4): 26.5 µM (inactive)
GI50 (RXF 393): 14.3 µM (inactive)
GI50 (Malme-3M): 13.3 µM (inactive)
GI50 (CAKI-1): 4.88 µM (inactive)
GI50 (A498): 13.6 µM (inactive)

NC(C/C=C/P(=O)(O)O)C(=O)O (centres undefined)
GI50 (SK-OV-3): > 100 µM (inactive)
GI50 (M14): > 100 µM (inactive)
GI50 (NCI/ADR-RES): > 100 µM (inactive)
GI50 (UACC-257): > 100 µM (inactive)
GI50 (MOLT-4): > 100 µM (inactive)
GI50 (EKVX): > 100 µM (inactive)
GI50 (SK-MEL-5): > 100 µM (inactive)
GI50 (NCI-H522): > 100 µM (inactive)
GI50 (HL-60): > 100 µM (inactive)
GI50 (SR): > 100 µM (inactive)
GI50 (Hs-578T): > 100 µM (inactive)
GI50 (SK-MEL-2): > 100 µM (inactive)
GI50 (MDA-MB-435): > 100 µM (inactive)
GI50 (MDA-MB-231): > 100 µM (inactive)
GI50 (OVCAR-5): > 100 µM (inactive)
GI50 (KM12): > 100 µM (inactive)
GI50 (HCC 2998): > 100 µM (inactive)
GI50 (CCRF-CEM): > 100 µM (inactive)
GI50 (IGROV-1): > 100 µM (inactive)
GI50 (TK-10): > 100 µM (inactive)
GI50 (A549): > 100 µM (inactive)
GI50 (NCI-H460): > 100 µM (inactive)
GI50 (U-251): > 100 µM (inactive)
GI50 (K562): > 100 µM (inactive)
GI50 (SF-268): 58.1 µM (inactive)
GI50 (SNB-19): > 100 µM (inactive)
GI50 (MCF7): > 100 µM (inactive)
GI50 (SK-MEL-28): > 100 µM (inactive)
GI50 (HCT-15): > 100 µM
GI50 (UACC-62): > 100 µM (inactive)
GI50 (LOX IMVI): > 100 µM (inactive)
GI50 (ACHN): > 100 µM (inactive)
GI50 (MDA-N): > 100 µM (inactive)
GI50 (NCI-H23): > 100 µM (inactive)
GI50 (DU-145): > 100 µM (inactive)
GI50 (SF-295): > 100 µM (inactive)
GI50 (OVCAR-8): > 100 µM (inactive)
GI50 (PC-3): > 100 µM (inactive)
GI50 (SF-539): > 100 µM (inactive)
GI50 (SW-620): > 100 µM (inactive)
GI50 (HCT-116): > 100 µM (inactive)
GI50 (COLO 205): > 100 µM (inactive)
GI50 (SN12C): > 100 µM (inactive)
GI50 (OVCAR-3): > 100 µM (inactive)
GI50 (UO-31): > 100 µM (inactive)
GI50 (HOP-92): > 100 µM (inactive)
GI50 (HT-29): > 100 µM (inactive)
GI50 (T47D): > 100 µM (inactive)
GI50 (SNB-75): 14.1 µM (inactive)
GI50 (OVCAR-4): > 100 µM (inactive)
GI50 (RXF 393): > 100 µM (inactive)
GI50 (CAKI-1): 2 µM (inactive)

CCOC(=O)c1nc2ccccc2nc1NCc1ccc(OC)cc1
GI50 (SK-OV-3): > 100 µM (inactive)
GI50 (NCI/ADR-RES): 68.1 µM (inactive)
GI50 (786-0): > 100 µM (inactive)
GI50 (UACC-257): > 100 µM (inactive)
GI50 (MOLT-4): > 100 µM (inactive)
GI50 (EKVX): > 100 µM (inactive)
GI50 (HOP-62): > 100 µM (inactive)
GI50 (SK-MEL-5): > 100 µM (inactive)
GI50 (NCI-H522): 56.9 µM (inactive)
GI50 (HL-60): > 100 µM (inactive)
GI50 (SR): > 100 µM (inactive)
GI50 (Hs-578T): 40.5 µM (inactive)
GI50 (MDA-MB-435): > 100 µM (inactive)
GI50 (MDA-MB-231): 99.8 µM (inactive)
GI50 (OVCAR-5): > 100 µM (inactive)
GI50 (KM12): 44.6 µM (inactive)
GI50 (HCC 2998): > 100 µM (inactive)
GI50 (RPMI-8226): > 100 µM (inactive)
GI50 (CCRF-CEM): > 100 µM (inactive)
GI50 (IGROV-1): > 100 µM (inactive)
GI50 (BT-549): > 100 µM (inactive)
GI50 (TK-10): 17 µM (inactive)
GI50 (A549): > 100 µM (inactive)
GI50 (NCI-H460): 82.8 µM (inactive)
GI50 (U-251): 64.3 µM (inactive)
GI50 (K562): > 100 µM (inactive)
GI50 (SF-268): > 100 µM (inactive)
GI50 (MCF7): 47.4 µM (inactive)
GI50 (SK-MEL-28): > 100 µM (inactive)
GI50 (HCT-15): > 100 µM
GI50 (UACC-62): 84.1 µM (inactive)
GI50 (LOX IMVI): > 100 µM (inactive)
GI50 (ACHN): > 100 µM (inactive)
GI50 (NCI-H23): > 100 µM (inactive)
GI50 (DU-145): > 100 µM (inactive)
GI50 (SF-295): > 100 µM (inactive)
GI50 (OVCAR-8): > 100 µM (inactive)
GI50 (SF-539): > 100 µM (inactive)
GI50 (SW-620): > 100 µM (inactive)
GI50 (HCT-116): 54.8 µM (inactive)
GI50 (NCI-H226): > 100 µM (inactive)
GI50 (COLO 205): > 100 µM (inactive)
GI50 (OVCAR-3): > 100 µM (inactive)
GI50 (UO-31): > 100 µM (inactive)
GI50 (HOP-92): > 100 µM (inactive)
GI50 (HT-29): 96.4 µM (inactive)
GI50 (T47D): 80.9 µM (inactive)
GI50 (SNB-75): 48.8 µM (inactive)
GI50 (OVCAR-4): > 100 µM (inactive)
GI50 (RXF 393): 23.4 µM (inactive)
GI50 (Malme-3M): > 100 µM (inactive)
GI50 (CAKI-1): > 100 µM (inactive)
GI50 (A498): 32.2 µM (inactive)
